Experimental data reported in paper PMC7835349 (Communications Biology, 2021).
Values joined by “and” are separate entries in the source; they are usually repeats but may differ in a detail not shown here. Equal values may be shown once.

Columns and labels:
OCI-LY10 xenograft = OCI-LY10 xenograft efficacy and survival; assay type: in vivo, C.B-17 SCID mouse; set-up: OCI-LY10 xenograft efficacy, individual animals: unit not given here; conditions: for OCI-LY10 xenograft efficacy, individual animals: Acalabrutinib 12.5mpk BID
Description: (§1) Female C.B.−17 SCID mice were purchased from Charles River Laboratories. Mice were 5–8 weeks old at the time of tumour implantation. All xenograft studies were conducted at our Association for the Assessment and Accreditation of Laboratory Animal Care accredited facility in Waltham, MA in accordance with ethical regulations described in the guidelines established by the internal Institutional Animal Care and Use Committee. The dendrimer conjugates were formulated in citrate/phosphate buffer pH 5.0, diluted 1:10 with 5% glucose containing 1% w/v Kolliphor HS15, and AZD4320 was formulated in 30% HP-β-CD and dosed as a weekly intravenous (IV) administration at a volume of 5 ml/kg at the indicated doses. Five million RS4;11, five million SUDHL-4 or five million OCI-LY-10 cells were injected subcutaneously in the right flank of mice in a volume of 0.1 ml. Tumour volumes (measured by caliper), animal body weight, and tumor condition were recorded twice weekly for the duration of the study. The tumour volume was calculated (taking length to be the longest diameter across the tumour and width to be the corresponding perpendicular diameter) using the formula: length (mm) x width (mm)^2/0.52. For efficacy studies, mice were randomized based on tumour volumes using stratified sampling and enrolled into control and treatment groups. Tumour growth inhibition from the start of treatment was quantified by measuring the difference in tumour volume between control and treated groups. Survival analysis was evaluated using Mantel-Cox test. Tumours were also taken for bioanalysis.

SUDHL-4 xenograft = SUDHL-4 xenograft efficacy and survival; assay type: in vivo, C.B-17 SCID mouse; conditions: Rituxan (Rtx) 10 mg/kg
Description: as §1

Molecule	OCI-LY10 xenograft efficacy, individual animals (OCI-LY10 xenograft; day 18)	OCI-LY10 xenograft efficacy, individual animals (OCI-LY10 xenograft; day 21)	OCI-LY10 xenograft efficacy, individual animals (OCI-LY10 xenograft; day 25)	OCI-LY10 xenograft efficacy, individual animals (OCI-LY10 xenograft; day 28)	OCI-LY10 xenograft efficacy, individual animals (OCI-LY10 xenograft; day 32)	OCI-LY10 xenograft efficacy, individual animals (OCI-LY10 xenograft; day 35)	OCI-LY10 xenograft efficacy, individual animals (OCI-LY10 xenograft; day 39)	OCI-LY10 xenograft efficacy, individual animals (OCI-LY10 xenograft; day 42)	monotherapy activity (OCI-LY10 xenograft; OCI-LY10 DLBCL model)	SUDHL-4 xenograft efficacy, Geo Mean (SUDHL-4 xenograft; day 1)	SUDHL-4 xenograft efficacy, Geo Mean (SUDHL-4 xenograft; day 5)	SUDHL-4 xenograft efficacy, Geo Mean (SUDHL-4 xenograft; day 9)	SUDHL-4 xenograft efficacy, Geo Mean (SUDHL-4 xenograft; day 12)	SUDHL-4 xenograft efficacy, Geo Mean (SUDHL-4 xenograft; day 16)	SUDHL-4 xenograft efficacy, Geo Mean (SUDHL-4 xenograft; day 19)	SUDHL-4 xenograft efficacy, Geo Mean (SUDHL-4 xenograft; day 23)	SUDHL-4 xenograft efficacy, Geo Mean (SUDHL-4 xenograft; day 26)	SUDHL-4 xenograft efficacy, Geo Mean (SUDHL-4 xenograft; day 29)	SUDHL-4 xenograft efficacy, Geo Mean (SUDHL-4 xenograft; day 32)
CC#CC(=O)N1CCC[C@H]1c1nc(-c2ccc(C(=O)Nc3ccccn3)cc2)c2c(N)nccn12 [acalabrutinib, reference compound]	127 and 164 and 248 and 101 and 210 and 188 and 174 and 141	221 and 332 and 538 and 104 and 333 and 303 and 198 and 259	299 and 256 and 495 and 88 and 284 and 527 and 334 and 162	232 and 311 and 519 and 141 and 436 and 334 and 361 and 191	363 and 375 and 663 and 150 and 384 and 401 and 347 and 391	402 and 443 and 532 and 209 and 471 and 429 and 383 and 277	393 and 553 and 891 and 198 and 472 and 366 and 578 and 547	405 and 474 and 589 and 106 and 385 and 656 and 416 and 224	neither agent showed any demonstrable monotherapy activity	–	–	–	–	–	–	–	–	–	–
Rituxan (Rtx)	–	–	–	–	–	–	–	–	–	207.17	194.343	229.272	236.829	277.244	341.784	461.782	534.569	692.979	702.104
